# Measurements: patent US20240002361A1, “COMPOSITIONS AND METHODS FOR BLOCKING NEUROPILIN RECEPTOR 1 FOR THE TREATMENT OF PAIN AND PREVENTION OF VIRAL ENTRY” (Arizona Board of Regents on Behalf of the University of …, priority 2020, published 2024)
# “And” between values parts separate entries of the source, which are not always exact repeats. Equal entries are not always repeated.
# How the values were obtained:
# NRP-1/VEGF-A interaction [1] = biological target: T1, NRP-1/VEGF-A interaction (Homo sapiens, UniProt O14786); assay: ELISA-based NRP1-VEGF-A165 protein binding assay (concentration-response, IC50); conditions: 20 nM biotinylated hVEGF-A165 with 4 μg/ml heparin, n=3, read-out: Calculated IC50 values of inhibiting the NRP-1/VEGF-A interaction
# T1 construct: coated with the extracellular domain of human NRP-1 (containing the a1a2 and the b1b2 regions); purchased Fisher, Hampton, NH 50-101-8343
# T1 sequence (O14786 22-856 limits assumed): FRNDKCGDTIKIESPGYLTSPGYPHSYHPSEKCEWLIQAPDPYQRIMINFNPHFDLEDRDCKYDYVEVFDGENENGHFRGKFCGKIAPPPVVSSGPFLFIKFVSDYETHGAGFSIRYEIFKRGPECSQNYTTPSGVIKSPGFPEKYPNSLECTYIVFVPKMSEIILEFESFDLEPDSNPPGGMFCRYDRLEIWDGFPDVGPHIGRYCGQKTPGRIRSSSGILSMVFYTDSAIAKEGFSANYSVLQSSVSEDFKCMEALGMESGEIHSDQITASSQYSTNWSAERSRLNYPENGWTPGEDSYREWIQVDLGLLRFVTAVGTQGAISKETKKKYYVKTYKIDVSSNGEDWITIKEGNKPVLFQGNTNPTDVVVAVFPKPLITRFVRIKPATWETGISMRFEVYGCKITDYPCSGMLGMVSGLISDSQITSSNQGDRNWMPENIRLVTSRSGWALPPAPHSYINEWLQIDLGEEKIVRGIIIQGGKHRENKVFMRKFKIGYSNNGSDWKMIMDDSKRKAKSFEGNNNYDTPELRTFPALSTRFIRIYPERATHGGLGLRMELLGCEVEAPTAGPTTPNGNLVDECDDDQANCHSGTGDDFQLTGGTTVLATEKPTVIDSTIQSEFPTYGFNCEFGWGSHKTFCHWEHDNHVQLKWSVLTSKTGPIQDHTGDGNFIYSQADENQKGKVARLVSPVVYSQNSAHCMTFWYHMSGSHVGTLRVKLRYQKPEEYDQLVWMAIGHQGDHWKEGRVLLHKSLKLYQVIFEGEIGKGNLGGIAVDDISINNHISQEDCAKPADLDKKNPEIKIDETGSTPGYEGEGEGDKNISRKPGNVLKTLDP
# Protocol: Plates (96-well, Nunc Maxisorp; Thermo Fisher Scientific, Waltham, MA, USA) were coated with human Neuropilin-1-Fc (200 ng per well, Cat #50-101-8343, Fisher, Hampton, NH) and incubated at 4° C. overnight. The following day, the plates were washed and blocked with 3% BSA in PBS to minimize non-specific adsorptive binding to the plates. EG00229 (Cat #6986, Tocris) or the indicated compounds were added at different concentrations and incubated for 30 min at room temperature prior to adding biotinylated human VEGF-A165 (Cat #BT10543-025, R&D systems) at 20 nM with 4 μg/ml of heparin. As a negative control, some wells received PBS containing 3% BSA and as a positive control only hVEGF-A165 was used. The plates were incubated at room temperature with shaking for 2 h. Next, the plates were washed with PBS 0.05% Tween to eliminate unbound protein. Bound biotinylated VEGF was detected by streptavidin-HRP (Cat #016-030-084, Jackson immunoResearch). Tetramethylbenzidine (Cat #DY999, R&D Systems, St. Louis, MO) was used as the colorimetric substrate. The optical density of each well was determined immediately, using a microplate reader (Multiskan Ascent; Thermo Fisher Scientific) set to 450 nm with a correction wavelength of 570 nm. Percentage of inhibition was calculated by the following formula: […]
# where S is the optical density measured in the wells with the compounds, N is the optical density measured in the negative control wells and P is the optical density in the positive control wells. The IC50 was calculated using a non-linear regression function with GraphPad Prism Version 9. The data are presented as log (inhibitor) [M] versus normalized response-variable slope. Data are the means±S.E.M. of three independent experiments.
# Finally, the ability of the compounds to interfere with the NRP-1NEGF-A interaction was evaluated using an enzyme linked immunosorbent assay (ELISA), as previously described (Moutal, et al., Pain 2021, 12(1), 243-252). Plates were coated with the extracellular domain of human NRP-1 (containing the a1a2 and the b1b2 regions) and the compounds were added to disrupt the NRP-1NEGF-A interaction. The biotinylated human VEGF-A used in the experiments described above (Moutal, et al., Pain 2021, 12(1), 243-252) was discontinued. For the instant studies, biotinylated hVEGF-A (Cat #BT10543-025, R&D systems) was used. Because of that, the known NRP-1 antagonist EG00229 and compound 4 from the above series of inhibitors (Moutal, et al., Pain 2021, 12(1), 243-252) were also tested in the instant studies.
# physchem = assay type: physicochemical; conditions: for logD: pH 7.4; for solubility kinetic: pH 7.4, aqueous buffer, kinetic from dmso stock
# Protocol: (§1) Additionally, an initial absorption, distribution, metabolism, and excretion (ADME) profile of the compound series was performed (Table 4).
# in vitro = in vitro ADME; conditions: microsomes
# Protocol: as §1
# HepG2 cells = assay: Cell proliferation and cytotoxicity in HepG2 cells (CellTiterGlo); assay type: cell-based; conditions: Homo sapiens, 48 h
# Protocol: as §1
# NRP-1/VEGF-A interaction [2] = biological target: T1, NRP-1/VEGF-A interaction; assay: ELISA-based NRP1-VEGF-A165 protein binding assay (single concentration); conditions: compounds 12.5 μM (Spike S1 100 nM), biotinylated VEGF-A165 10 nM; ± standard error of the mean, n = 11
SMILES,IC50 (NRP-1/VEGF-A interaction [1]),logD (physchem),solubility kinetic (physchem) [µM],half-life (in vitro; human) [min],half-life (in vitro; mouse) [min],half-life (in vitro; rat) [min],IC50 (HepG2 cells) [µM],Rel % inhibition (NRP-1/VEGF-A interaction [2]) [%]
"COc1cccc(-c2nc(Nc3c[nH]c(C(=O)O)c3)cc(=O)[nH]2)c1 [1g′, 4-[[2-(3-methoxyphenyl)-6-oxo-1H-pyrimidin-4-yl]amino]-1H-pyrrole-2-carboxylic acid]",28.2 µM,-0.62,> 200,> 120,> 120,> 120,> 30,–
"COc1cccc(-c2cc(=O)[nH]c(Nc3c[nH]c(C(=O)O)c3)n2)c1 [1g′-iso, 4-[[4-(3-methoxyphenyl)-6-oxo-1H-pyrimidin-2-yl]amino]-1H-pyrrole-2-carboxylic acid]",32 µM,-0.38,> 200,> 120,> 120,> 120,> 30,–
COc1cccc(-c2cc(=O)[nH]c(Nc3ccccc3)n2)c1 [Compound 1],–,–,–,–,–,–,–,56 ± 7
"COc1cccc(-c2cc(=O)[nH]c(Nc3ccnc(N)c3)n2)c1 [Compound 1a, 2-[(2-amino-4-pyridyl)amino]-4-(3-methoxyphenyl)-1H-pyrimidin-6-one]",214 µM,1.64,184,> 120,29.3,3.8,> 30,–
"COc1cccc(-c2nc(Nc3ccccc3)cc(=O)[nH]2)c1 [Compound 1b, 4-anilino-2-(3-methoxyphenyl)-1H-pyrimidin-6-one]",112 µM,3.78,3.5,14.8,9.4,8.3,> 30,–
"COc1cccc(-c2cc(Nc3ccccc3)[nH]c(=O)n2)c1 [Compound 1b-iso, 6-anilino-4-(3-methoxyphenyl)-1H-pyrimidin-2-one]",105 µM,2.78,4.7,102,22,4.4,> 30,–
"COc1cccc(-c2cc(=O)[nH]c(Nc3cccc(O)c3)n2)c1 [Compound 1c, 2-(3-hydroxyanilino)-4-(3-methoxyphenyl)-1H-pyrimidin-6-one]",23.1 µM,2.49,14.2,> 120,71.7,4.4,> 30,–
"COc1cc(-c2cc(=O)[nH]c(Nc3ccc(Cl)c(O)c3)n2)ccn1 [Compound 1d, 2-(4-chloro-3-hydroxy-anilino)-4-(2-methoxy-4-pyridyl)-1H-pyrimidin-6-one]",134 µM,3.15,19.4,28.4,59.7,14.1,> 30,–
"COc1cc(-c2cc(=O)[nH]c(Nc3ccccc3)n2)ccn1 [Compound 1s, 2-anilino-4-(2-methoxy-4-pyridyl)-1H-pyrimidin-6-one]",1030 µM,3.15,11.5,16.6,13.6,9.4,> 30,–
"COc1cccc(-c2cc(=O)[nH]c(Nc3cc[nH]n3)n2)c1 [Compound 1t, 4-(3-methoxyphenyl)-2-(1H-pyrazol-3-ylamino)-1H-pyrimidin-6-one]",128 µM,2.67,48.7,64.5,4.5,12.7,> 30,–
"COc1cccc(-c2cc(=O)[nH]c(Nc3ccccc3)n2)n1 [Compound 1u, 2-anilino-4-(6-methoxy-2-pyridyl)-1H-pyrimidin-6-one]",369 µM,3.51,10.4,18.9,9.6,3.9,> 30,–
CC(C)Cc1cc(C(=O)NCC2CCOC2)nc(=O)[nH]1 (stereo not shown) [Compound 2],–,–,–,–,–,–,–,59 ± 11
"CC(C)Cc1cc(C(=O)NCCO)nc(=O)[nH]1 [Compound 2a, N-(2-hydroxyethyl)-6-isobutyl-2-oxo-1H-pyrimidine-4-carboxamide]",≤ 32 µM and 1.8 µM,0.02,> 200,> 120,> 120,> 120,> 30,–
COc1ccccc1Nc1nc(-c2cnc(N3CCCC3)nc2C)cc(=O)[nH]1 [Compound 5],–,–,–,–,–,–,–,42 ± 10
COc1ccccc1Nc1nncc(=O)[nH]1 [Compound 7],–,–,–,–,–,–,–,18 ± 19
O=c1cnnc(Nc2ccccc2O)[nH]1 [Compound 8],–,–,–,–,–,–,–,24 ± 16
Cc1cc(CN(C)Cc2cc(=O)[nH]c(=O)[nH]2)no1 [Compound 9],–,–,–,–,–,–,–,43 ± 8
"O=c1cc(Nc2cccc(O)c2)[nH]c(=O)[nH]1 [Compound 9c, 6-(3-hydroxyanilino)-1H-pyrimidine-2,4-dione]",469 µM,0.38,> 200,> 120,> 120,> 120,> 30,–
O=C(O)Cc1cnc(-c2cccnc2)[nH]c1=O [Compound 11],–,–,–,–,–,–,–,43 ± 16
